Assay results taken from article PMC6151383 (Molecules : A Journal of Synthetic Chemistry and Natural …, 2017).
Values after ≈ are worked out from the molar mass of the structure shown. Read-outs that look alike come from different tables or passages of the source.

Legend:
[1] = tested on: Staphylococcus aureus CCM 4516/08; experiment: Antibacterial microdilution broth MIC, S. aureus; assay type: cell-based; conditions: Staphylococcus aureus, CCM4516; 48 h incubation; read-out: MIC SA 48 h
[2] = tested on: Staphylococcus epidermidis H 6966/08; experiment: Antibacterial microdilution broth MIC, S. epidermidis; assay type: cell-based; conditions: Staphylococcus epidermidis
[3] = tested on: Enterococcus faecalis J 14365/08; experiment: Antibacterial microdilution broth MIC, E. faecalis; assay type: cell-based; conditions: Enterococcus faecalis, J14365/08; 48 h incubation; read-out: MIC EF 48 h
[4] = tested on: Escherichia coli CCM 4517; experiment: Antibacterial microdilution broth MIC, E. coli; assay type: cell-based; conditions: Escherichia coli, CCM4517; 48 h incubation; read-out: MIC EC 48 h
[5] = tested on: Pseudomonas aeruginosa CCM 1961; experiment: Antibacterial microdilution broth MIC, P. aeruginosa; assay type: cell-based; conditions: Pseudomonas aeruginosa, CCM1961; 48 h incubation; read-out: MIC PA 48 h
[6] = tested on: Mycobacterium tuberculosis 331/88 (H37Rv); experiment: In vitro antimycobacterial MIC, M. tuberculosis; assay type: cell-based
[7] = tested on: Mycobacterium avium 330/88; experiment: In vitro antimycobacterial MIC, M. avium; assay type: cell-based
[8] = tested on: Mycobacterium kansasii 235/80; experiment: In vitro antimycobacterial MIC, M. kansasii 235/80; assay type: cell-based
M. kansasii 6509/96 = experiment: In vitro antimycobacterial MIC, M. kansasii clinical isolate; assay type: cell-based; conditions: Mycobacterium kansasii
[9] = tested on: Candida albicans ATCC 44859; experiment: Antifungal microdilution broth MIC, C. albicans; assay type: cell-based; conditions: ATCC44859, 48 h incubation, read-out: MIC CA 48 h
Candida tropicalis 156 = experiment: Antifungal microdilution broth MIC, C. tropicalis; assay type: cell-based; conditions: Candida tropicalis, 156; 48 h incubation; read-out: MIC CT 48 h
Candida krusei E28 = experiment: Antifungal microdilution broth MIC, C. krusei; assay type: cell-based; conditions: Pichia kudriavzevii, E28; 48 h incubation; read-out: MIC CK 48 h
Candida glabrata 20/I = experiment: Antifungal microdilution broth MIC, C. glabrata; assay type: cell-based; conditions: Nakaseomyces glabratus, 48 h incubation, read-out: MIC CG 48 h
Trichosporon asahii 1188 = experiment: Antifungal microdilution broth MIC, T. asahii; assay type: cell-based; conditions: Trichosporon asahii, 1188; 48 h incubation; read-out: MIC TA 48 h
[10] = tested on: Aspergillus fumigatus 231; experiment: Antifungal microdilution broth MIC, A. fumigatus; assay type: cell-based; conditions: Aspergillus fumigatus, 231; 48 h incubation; read-out: MIC AF 48 h
[11] = tested on: Lichtheimia corymbifera 272; experiment: Antifungal microdilution broth MIC, L. corymbifera; assay type: cell-based; conditions: Lichtheimia corymbifera, 272; 48 h incubation; read-out: MIC LC 48 h
[12] = tested on: Trichophyton interdigitale 445; experiment: Antifungal microdilution broth MIC, T. interdigitale; assay type: cell-based; conditions: for SI for TI: SI = IC50 (HepG2)/MIC
Candida sp. = experiment: Selectivity index for Candida sp. (IC50 HepG2/MIC); assay type: cell-based; conditions: all Candida species
[13] = tested on: Klebsiella pneumoniae D 11750/08
[14] = tested on: ESBL-positive Klebsiella pneumoniae J 14368/08
[15] = 336 h, 14 d incubation, read-out: MIC Mtb. 331/88 14 d
[16] = 504 h, 21 d incubation, read-out: MIC Mtb. 331/88 21 d
[17] = 330/88, 336 h, 14 d incubation, read-out: MIC M. avium 330/88 14 d
[18] = 330/88, 504 h, 21 d incubation, read-out: MIC M. avium 330/88 21 d
[19] = 235/80, 168 h, 7 d incubation, read-out: MIC M. kansasii 235/80 7 d
[20] = 235/80, 336 h, 14 d incubation, read-out: MIC M. kansasii 235/80 14 d
[21] = 235/80, 504 h, 21 d incubation, read-out: MIC M. kansasii 235/80 21 d
[22] = 6509/96, 168 h, 7 d incubation, read-out: MIC M. kansasii 6509/96 7 d
[23] = 6509/96, 336 h, 14 d incubation, read-out: MIC M. kansasii 6509/96 14 d
[24] = 6509/96, 504 h, 21 d incubation, read-out: MIC M. kansasii 6509/96 21 d
[25] = Trichophyton interdigitale, 445, 72 h incubation, read-out: MIC TI 72 h
[26] = Trichophyton interdigitale, 445, 120 h incubation, read-out: MIC TI 120 h
[27] = H6966/08, 24 h, read-out: MIC SE 24 h
[28] = H6966/08, 48 h, read-out: MIC SE 48 h

O=S(=O)(Nc1ncccn1)c1ccc(N=Cc2cc(F)ccc2O)cc1 [Compound 2b, 4-[(5-Fluoro-2-hydroxybenzylidene)amino]-N-(pyrimidin-2-yl)benzenesulfonamide]
MIC [1]: > 250 µM | MIC ([2]; H6966/08, 48 h incubation, read-out: MIC SE 48 h): > 250 µM | MIC [3]: > 250 µM | MIC [4]: > 250 µM | MIC [5]: > 250 µM | MIC [6, 15]: 125 µM (≈ 46.5 µg/mL) | MIC [6, 16]: 125 µM (≈ 46.5 µg/mL) | MIC [7, 17]: 500 µM (≈ 186 µg/mL) | MIC [7, 18]: 1000 µM (≈ 372 µg/mL) | MIC [8, 19]: 62.5 µM (≈ 23.3 µg/mL) | MIC [8, 20]: 125 µM (≈ 46.5 µg/mL) | MIC [8, 21]: 250 µM (≈ 93.1 µg/mL) | MIC (M. kansasii 6509/96; [22]): 125 µM (≈ 46.5 µg/mL) | MIC (M. kansasii 6509/96; [23]): 250 µM (≈ 93.1 µg/mL) | MIC (M. kansasii 6509/96; [24]): 250 µM (≈ 93.1 µg/mL) | MIC [9]: > 250 µM | MIC (Candida tropicalis 156): > 250 µM | MIC (Candida krusei E28): > 250 µM | MIC (Candida glabrata 20/I): > 250 µM | MIC (Trichosporon asahii 1188): > 250 µM | MIC [10]: > 250 µM | MIC [11]: > 250 µM | SI for TI ([12]; Trichophyton interdigitale): inactive | MIC [12, 25]: > 250 µM | MIC [12, 26]: > 250 µM | SI for Candida sp. (Candida sp.): inactive | MIC KP 24 h [13]: >250 µM | MIC KP 48 h [13]: >250 µM | MIC KP-E 24 h [14]: >250 µM | MIC KP-E 48 h [14]: >250 µM

Cc1ccc(O)c(C=Nc2ccc(S(=O)(=O)Nc3ncccn3)cc2)c1 [Compound 2g, 4-[(2-Hydroxy-5-methylbenzylidene)amino]-N-(pyrimidin-2-yl)benzenesulfonamide]
MIC [1]: > 250 µM | MIC [2, 27]: 125 µM (≈ 46.1 µg/mL) | MIC [2, 28]: 125 µM (≈ 46.1 µg/mL) | MIC [3]: > 250 µM | MIC [4]: > 250 µM | MIC [5]: > 250 µM | MIC [6, 15]: 125 µM (≈ 46.1 µg/mL) | MIC [6, 16]: 125 µM (≈ 46.1 µg/mL) | MIC [7, 17]: 500 µM (≈ 184 µg/mL) | MIC [7, 18]: 1000 µM (≈ 368 µg/mL) | MIC [8, 19]: 125 µM (≈ 46.1 µg/mL) | MIC [8, 20]: 125 µM (≈ 46.1 µg/mL) | MIC [8, 21]: 250 µM (≈ 92.1 µg/mL) | MIC (M. kansasii 6509/96; [22]): 62.5 µM (≈ 23 µg/mL) | MIC (M. kansasii 6509/96; [23]): 62.5 µM (≈ 23 µg/mL) | MIC (M. kansasii 6509/96; [24]): 125 µM (≈ 46.1 µg/mL) | MIC [9]: > 500 µM | MIC (Candida tropicalis 156): > 500 µM | MIC (Candida krusei E28): > 500 µM | MIC (Candida glabrata 20/I): > 500 µM | MIC (Trichosporon asahii 1188): > 500 µM | MIC [10]: > 500 µM | MIC [11]: > 500 µM | SI for TI ([12]; Trichophyton interdigitale): inactive | MIC [12, 25]: > 500 µM | MIC [12, 26]: > 500 µM | SI for Candida sp. (Candida sp.): inactive | MIC KP 24 h [13]: >250 µM | MIC KP 48 h [13]: >250 µM | MIC KP-E 24 h [14]: >250 µM | MIC KP-E 48 h [14]: >250 µM

COc1ccc(O)c(C=Nc2ccc(S(=O)(=O)Nc3ncccn3)cc2)c1 [Compound 2h, 4-[(2-Hydroxy-5-methoxybenzylidene)amino]-N-(pyrimidin-2-yl)benzenesulfonamide]
MIC [1]: 500 µM (≈ 192 µg/mL) | MIC [2, 27]: 62.5 µM (≈ 24 µg/mL) | MIC [2, 28]: 62.5 µM (≈ 24 µg/mL) | MIC [3]: > 500 µM | MIC [4]: > 500 µM | MIC [5]: 500 µM (≈ 192 µg/mL) | MIC [6, 15]: 32 µM (≈ 12.3 µg/mL) | MIC [6, 16]: 62.5 µM (≈ 24 µg/mL) | MIC [7, 17]: 125 µM (≈ 48.1 µg/mL) | MIC [7, 18]: 125 µM (≈ 48.1 µg/mL) | MIC [8, 19]: 16 µM (≈ 6.15 µg/mL) | MIC [8, 20]: 32 µM (≈ 12.3 µg/mL) | MIC [8, 21]: 62.5 µM (≈ 24 µg/mL) | MIC (M. kansasii 6509/96; [22]): 16 µM (≈ 6.15 µg/mL) | MIC (M. kansasii 6509/96; [23]): 16 µM (≈ 6.15 µg/mL) | MIC (M. kansasii 6509/96; [24]): 32 µM (≈ 12.3 µg/mL) | MIC [9]: 500 µM (≈ 192 µg/mL) | MIC (Candida tropicalis 156): 500 µM (≈ 192 µg/mL) | MIC (Candida krusei E28): > 500 µM | MIC (Candida glabrata 20/I): 500 µM (≈ 192 µg/mL) | MIC (Trichosporon asahii 1188): 500 µM (≈ 192 µg/mL) | MIC [10]: > 500 µM | MIC [11]: > 500 µM | MIC ([12]; Trichophyton interdigitale, 445, 72 h, read-out: MIC TI 72 h): 62.5 µM (≈ 24 µg/mL) | MIC ([12]; Trichophyton interdigitale, 445, 120 h, read-out: MIC TI 120 h): 62.5 µM (≈ 24 µg/mL) | MIC ([12]; Trichophyton interdigitale, 445, read-out: MIC for T. interdigitale): 62.5 µM (≈ 24 µg/mL) | MIC KP 24 h [13]: >500 µM | MIC KP 48 h [13]: >500 µM | MIC KP-E 24 h [14]: >500 µM | MIC KP-E 48 h [14]: >500 µM
